Results as given in patent US5965539A, “Inhibitors of prenyl transferases” (Univeristy of Pittsburgh, priority 1996, dated 1999).
Where two headings read alike, the source gives them in different places.

What was measured:
FTase = biological target: T1, FTase (Homo sapiens, UniProt P49356); assay: FTase activity assay: transfer of [3H]farnesyl from FPP to recombinant H-Ras-CVLS, Daudi 60,000xg supernatant; assay type: biochemical; conditions: Table 1
T1 construct: FTase and GGTase I activities from 60,000×g supernatants of human Burkitt lymphoma (Daudi) cells; endogenous in cells; host or cells: human Burkitt lymphoma (Daudi) cells, 60,000xg supernatant (partially purified)
T1 sequence (P49356 whole entry): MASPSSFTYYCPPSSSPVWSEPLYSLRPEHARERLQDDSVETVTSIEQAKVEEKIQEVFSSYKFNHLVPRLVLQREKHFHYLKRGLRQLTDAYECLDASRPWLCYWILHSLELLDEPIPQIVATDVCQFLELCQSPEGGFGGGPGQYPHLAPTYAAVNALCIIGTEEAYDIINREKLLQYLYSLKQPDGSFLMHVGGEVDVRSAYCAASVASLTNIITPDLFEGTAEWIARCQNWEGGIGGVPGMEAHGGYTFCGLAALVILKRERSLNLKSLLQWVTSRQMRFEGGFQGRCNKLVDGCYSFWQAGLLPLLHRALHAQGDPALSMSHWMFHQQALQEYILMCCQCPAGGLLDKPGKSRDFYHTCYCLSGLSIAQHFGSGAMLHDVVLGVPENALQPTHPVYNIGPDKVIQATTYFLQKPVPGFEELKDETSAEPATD

H-Ras processing = assay: Ras processing assay in H-RasF cells (NIH 3T3 transformed with oncogenic H-Ras-CVLS), immunoblot; assay type: cell-based; conditions: for IC50: whole cells
Protocol: (§1) H-RasF cells (45) were seeded on day 0 in 100 mm Dishes (costar) in Dulbecco's modified Eagles medium (GIBCO) and allowed to grow to 40-60% confluency. […] On day 3, cells were washed one time with ice cold PBS and were collected and lysed by incubation for 30-60 min on ice in lysis buffer (41). Lysates were cleared (14,000 rpm, 4° C., 15 min) and supernatants collected. Equal amounts of lysate were separated on a 12.5% SDS-PAGE, transfered to nitrocellulose, and a western blot performed using a anti-Ras antibody (Y13-238, ATCC) or anti-Rap1A antibody (Santa Cruz Biotechnology, Santa Cruz, Calif.). Antibody reactions were visualized using peroxidase-conjugated goat anti-rat IgG for Y13-238 and peroxidase-conjugated goat anti-rabbit IgG for Rap1A and an enhanced chemiluminescence detection system (ECL; Amersham Corp.)
(§2) H-Ras cells (45) and K-Ras4B Cells (32) were kind gifts from Dr. Channing Der and Dr. Adrienne Cox (University of North Carolina, Chapel Hill). Means of obtaining these cell lines will be easily recognized by the skilled practitioner. Cells were seeded on day 0 in 100 mm dishes in Dulbecco's modified Eagles medium supplemented with 10% calf serum and 1% penicillin-streptomycin. […] On day 3, cells were washed and lysed in lysis buffer containing 50 mM HEPES, pH 7.5, 10 mM NaCl, 1% TX-100, 10% glycerol, 5 mM MgCl2, 1 mM EGTA, 25 μg/ml leupeptin, 2 mM PMSF, 2 mM Na3 VO4, 1 mg/ml soybean trypsin inhibitor, 10 μg/ml aprotinin, 6.4 mg/ml Sigma-104® phosphatase substrate. Lysates were cleared (14,000 rpm, 4° C., 15 min) and equal amounts of protein were separated on a 12.5% SDS-PAGE, transferred to nitrocellulose, and immunoblotted using an anti-Ras antibody (Y13-259, ATCC) or an anti-RapIA antibody (SC-65, Santa Cruz Biotechnology, Santa Cruz, Calif.). Antibody reactions were visualized using either peroxidase-conjugated goat anti-rat 1 gG (for Y13-259), or peroxidase-conjugated goat anti-rabbit 1 gG (for Rap1A) and an enhanced chemiluminescence detection (ECL, Amersham Corp.), as described previously (41).

Rap1A processing = Rap1A processing assay in NIH 3T3 cells overexpressing oncogenic H-Ras, immunoblot; assay type: cell-based; conditions: for IC50: whole cells
Protocol: as §1, §2

K-Ras4B processing = K-Ras4B processing assay in NIH 3T3 cells overexpressing oncogenic K-Ras4B; assay type: cell-based; conditions: whole cells
From the text: H-Ras cells (45) and K-Ras4B Cells (32) were kind gifts from Dr. Channing Der and Dr. Adrienne Cox (University of North Carolina, Chapel Hill). Means of obtaining these cell lines will be easily recognized by the skilled practitioner.

RasGG processing = conditions: 5 μM, FIG. 2B
Protocol: as §1

[1] = test system: endogenous Ras processing; conditions: 5 μM, pZIPneo and Raf cells
Protocol: as §1

[2] = test system: H-RasF transformed NIH 3T3 cells; conditions: 50 mg/kg once daily
Protocol: A. Antitumor efficacy was carried out as described in FIG. 3 except that animals were randomly assigned to four groups each of 4 mice each (2 tumors per mouse). […] B. Ras processing was carried out 5 hours after the last treatement on day 17. Tumors were extracted from the animals, tissumized, and lysed in lysis buffer as described in FIG. 1. Lysates (25 μg) were electrophoresed on a 12.5% SDS-PAGE and immunoblotted with anti-Ras antibody Y13-238 as described previously. The blots were then reprobed with anti-Rap1A antibody (Santa Cruze Biotechnologies, Santa Cruz, Calif.).
The tumor sizes at the end of 17 days were 2490 mm^3 for saline, 1793 mm^3 for 10 mg/kg, 1226 mm^3 for 50 mg/kg and 624 mm^3 for 100 mg/kg treated animals. […] Tumors from control animals contained only fully processed Ras which migrates faster in SDS-PAGE gels (FIG. 11B). […] Thus, the extent of tumor growth inhibition correlated with the extent of inhibition of Ras processing.

Ras nucleotide state = conditions: H-RasF cells
Protocol: H-RasF cells were seeded and treated as above for Ras/Raf interaction and Ras and Rap1A processing. On day 2, however, cells were labeled overnight with [^32 P] orthophosphate at 100 μCi/mo (Amersham PBS13) in 10 ml DMEM-phosphate supplemented with 10% calf serum, 1 mg/ml BSA and 20 mM HEPES, pH 7.5. On day 3, the medium was removed and cells were washed one time in ice-cold PBS, scraped from the plate with a cell scraper, collected and centrifuged. The cell pellet was resuspended in ice-cold hypotonic buffer listed above and the cytosol and membrane fractions were separated according to the above description for Ra/Raf association. The cytosol and membrane fractions were lysed on ice for 60 min in 50 mM Tris, pH 7.5, 5 mM MgCl2, 1% Triton X-100 (TX-100), 0.5% DOC, 0.05% SDS, 500 mM NaCl, 1 mM EGTA, 10 μg/ml aprotinin, 10 μg/ml soybean trypsin inhibitor, 25 μg/ml leupeptin, 1 mM DTT, 1 mg/ml BSA. Lysates were cleared and equal amounts of protein were immunoprecipitated using anti-Ras antibody (Y13-259) along with 30 μl Protein A-Agarose goat anti-rat IgG complex (Oncogene Science) for 60 min at 4° C. […] Plates were analyzed by autoradiogram.

[3] = test system: oncogenic Raf activation of MAPK; conditions: 5 μM, FIG. 5B

- GG/F (FTase; ratio GGTase I IC50 / FTase IC50): 32
- IC50 (FTase; read-out: FTase IC50): 0.05 µM
- IC50 (H-Ras processing; Table 5, read-out: In Vivo Processing IC50 H-Ras): 0.1 µM
- IC50 (H-Ras processing; read-out: H-Ras processing IC50): 0.1 µM
- IC50 (Rap1A processing; Table 5, read-out: In Vivo Processing IC50 Rap1A): 50 µM
- IC50 (Rap1A processing; read-out: Rap1A processing IC50): 50 µM
- IC50 (K-Ras4B processing; Table 5, read-out: In Vivo Processing IC50 K-Ras): 10 µM
- IC50 (K-Ras4B processing; read-out: K-Ras4B processing IC50): 10 µM
SMILES: COC(=O)[C@H](CCSC)NC(=O)c1ccc(NC[C@@H](N)CS)cc1-c1ccccc1 [FTI-277, 4-N-[2(R)-Amino-3-mercaptopropyl]amino-2-phenylbenzoyl methionine methyl ester]
- processing of RasF (H-Ras processing; 5 μM, FIG. 2B): completely blocked
- concentration at which Ras processing was blocked (H-Ras processing; H-RasF cells): 1 µM
- inhibition of processing of geranylgeranylated Rap1A (Rap1A processing; concentrations as high as 10 μM): did not inhbit processing
- processing of RasGG (RasGG processing): not affected
- processing of endogenous Ras [1]: blocked
- tumor growth of H-RasF transformed NIH 3T3 cells [2]: inhibited tumor growth
- nucleotide state of non-farnesylated cytosolic Ras (Ras nucleotide state): GTP bound
- block of oncogenic Raf activation of MAPK [3]: not blocked
